Target: T1, MurC (Acinetobacter baumannii, UniProt A3M9Y0)
T1 construct: full length, N-terminal 6xHis tag removed by TEV protease, E. coli BL21(DE3)
Experiment: HPLC of UMA formation
Format: biochemical
Settings: 200 µM UDP-MurNAc, 1 mM L-alanine, 1 mM ATP, 2 mM MgCl2, pH 7.4, 37 °C

T1 sequence (A3M9Y0 whole entry): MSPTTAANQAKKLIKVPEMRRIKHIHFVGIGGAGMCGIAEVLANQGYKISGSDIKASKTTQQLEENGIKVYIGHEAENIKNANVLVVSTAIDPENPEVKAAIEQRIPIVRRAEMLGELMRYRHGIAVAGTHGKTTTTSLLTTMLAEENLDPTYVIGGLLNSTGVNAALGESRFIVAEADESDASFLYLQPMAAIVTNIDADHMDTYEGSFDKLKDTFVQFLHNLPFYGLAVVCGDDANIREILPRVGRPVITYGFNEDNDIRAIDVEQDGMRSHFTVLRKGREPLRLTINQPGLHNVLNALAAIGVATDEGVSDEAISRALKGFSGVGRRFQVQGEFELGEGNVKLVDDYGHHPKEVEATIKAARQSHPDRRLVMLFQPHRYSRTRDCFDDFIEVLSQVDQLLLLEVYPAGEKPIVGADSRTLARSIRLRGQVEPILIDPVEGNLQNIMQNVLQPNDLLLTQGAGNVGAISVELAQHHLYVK

CC(=O)N[C@H]1[C@@H](OP(=O)(O)OP(=O)(O)OC[C@H]2O[C@@H](n3ccc(=O)[nH]c3=O)[C@H](O)[C@@H]2O)O[C@H](CO)[C@@H](O)[C@@H]1O[C@H](C)C(=O)O [UDP-MurNAc]
HPLC of UMA formation: MurC and MurD activity were quantified by measuring MurC product, UMA

Source: PMC12208494, “The zinc metalloprotein MigC impacts cell wall biogenesis through interactions with an essential Mur ligase in Acinetobacter baumannii” (PLOS Pathogens, 2025)
